Test results taken from PubChem BioAssay AID256 (DTP/NCI, 2004).
“And” between values parts separate entries of the source, which are not always exact repeats. Equal values may be shown once. Inconclusive results and toxic doses are left out. Rule for the calls: active = survival T/C of 150% or more; inactive = T/C below 125% in these data.

System: CD2F1 mice, L1210 leukemia ip, survival T/C
Experiment: NCI In Vivo Anticancer Drug Screen. Data for tumor model L1210 Leukemia (intraperitoneal) in CD2F1 (CDF1) mice
Conditions: higher = longer survival
How it was run: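 Antitumor effect is scored in animals hosting a serially transplanted tumor. Values compare compound-dosed animals against vehicle-only controls as a simple quotient.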

[1] = endpoint: mean survival time, dose: 100.0 mg/kg/injection, schedule: Q01DX009 (ip), vehicle: saline with Tween-80
[2] = endpoint: mean survival time, dose: 200.0 mg/kg/injection, schedule: Q01DX009 (ip), vehicle: saline with Tween-80
[3] = endpoint: mean survival time, dose: 400.0 mg/kg/injection, schedule: Q01DX009 (ip), vehicle: saline with Tween-80
[4] = endpoint: mean survival time, dose: 100.0 mg/kg/injection, schedule: Q04DX003 (ip), vehicle: saline
[5] = endpoint: mean survival time, dose: 200.0 mg/kg/injection, schedule: Q04DX003 (ip), vehicle: saline
[6] = endpoint: mean survival time, dose: 100.0 mg/kg/injection, schedule: Q04DX003 (ip), vehicle: saline with Tween-80
[7] = endpoint: mean survival time, dose: 200.0 mg/kg/injection, schedule: Q04DX003 (ip), vehicle: saline with Tween-80
[8] = endpoint: mean survival time, dose: 400.0 mg/kg/injection, schedule: Q04DX003 (ip), vehicle: saline with Tween-80
[9] = endpoint: mean survival time, dose: 100.0 mg/kg/injection, schedule: Q01DX001 (ip), vehicle: saline with Tween-80
[10] = endpoint: mean survival time, dose: 200.0 mg/kg/injection, schedule: Q01DX001 (ip), vehicle: saline with Tween-80
[11] = endpoint: mean survival time, dose: 400.0 mg/kg/injection, schedule: Q01DX001 (ip), vehicle: saline with Tween-80
[12] = endpoint: mean survival time, dose: 100.0 mg/kg/injection, schedule: Q04DX002 (ip), vehicle: saline with Tween-80
[13] = endpoint: mean survival time, dose: 200.0 mg/kg/injection, schedule: Q04DX002 (ip), vehicle: saline with Tween-80
[14] = endpoint: mean survival time, dose: 400.0 mg/kg/injection, schedule: Q04DX002 (ip), vehicle: saline with Tween-80
[15] = endpoint: mean survival time, dose: 100.0 mg/kg/injection, schedule: Q01DX001 (ip), vehicle: saline
[16] = endpoint: mean survival time, dose: 200.0 mg/kg/injection, schedule: Q01DX001 (ip), vehicle: saline
[17] = endpoint: mean survival time, dose: 400.0 mg/kg/injection, schedule: Q01DX001 (ip), vehicle: saline

Measured: T/C

CSc1ncnc2c1c(C#N)cn2C1OC(CO)C(O)C1O (configuration not stated)
inactive: endpoint: mean survival time, dose: 32.0 mg/kg/injection, schedule: Q01DX009 (ip), vehicle: saline 124 % of control | endpoint: mean survival time, dose: 53.0 mg/kg/injection, schedule: Q01DX009 (ip), vehicle: saline 87 % of control

Cc1ccc(N2OCCN(C(=O)c3cc([N+](=O)[O-])cc([N+](=O)[O-])c3)C2c2ccccc2)cc1 (configuration not stated)
inactive: [1] 91 % of control | [2] 95 % of control | [3] 91 % of control

Cc1ccccc1Sc1cc2ccccc2c2ccccc12
inactive: [4] 97 % of control | [5] 100 % of control | endpoint: mean survival time, dose: 400.0 mg/kg/injection, schedule: Q04DX003 (ip), vehicle: saline 100 % of control

CN(C)c1ccc(/C=C/C(=O)Cc2ccccc2)cc1
inactive: endpoint: mean survival time, dose: 100.0 mg/kg/injection, schedule: Q01DX001 (ip), vehicle: saline sonified 100 % of control

C1=CC2c3ccc4ccccc4c3C(c3ccccc3)C2C=C1 (configuration not stated)
inactive: [6] 108 % of control | [7] 96 % of control | [8] 102 % of control

C[n+]1ccc(Nc2ccc(NC(=O)c3ccc(Nc4ccnc5ccc([N+](=O)[O-])cc45)cc3[N+](=O)[O-])cc2)cc1
inactive: [9] 96 % of control | [10] 95 % of control | [11] 93 % of control

CCOC(=O)C(O)c1ccccc1 (configuration not stated)
inactive: [1] 101 % of control | [2] 96 % of control | [3] 93 % of control

CC(CCOc1ccc2ccc(=O)oc2c1)C1=CC(=O)C(C)(C)O1 (configuration not stated)
inactive: endpoint: mean survival time, dose: 50.0 mg/kg/injection, schedule: Q01DX001 (ip), vehicle: saline with Tween-80 113 % of control | [9] 95 % of control | [10] 98 % of control

CC1(CNC(=O)C(=O)NCC2(C)CO2)CO1 (configuration not stated)
inactive: endpoint: mean survival time, dose: 22.0 mg/kg/injection, schedule: Q01DX Z (ip), vehicle: saline 122 % of control | endpoint: mean survival time, dose: 150.0 mg/kg/injection, schedule: Q01DX010 (ip), vehicle: saline 113 % of control | endpoint: mean survival time, dose: 225.0 mg/kg/injection, schedule: Q01DX010 (ip), vehicle: saline 106 % of control

CCC(=O)Nc1ccc(C)c(Cl)c1
inactive: [1] 95 % of control | [6] 96 % of control | [2] 95 % of control | [7] 95 % of control | [3] 104 % of control | [8] 97 % of control

CC(OC(=O)c1ccccc1)c1ccccc1 (configuration not stated)
inactive: [1] 95 % of control | [6] 96 % of control | [2] 105 % of control | [7] 105 % of control | [3] 112 % of control | [8] 94 % of control

CC1(CCC2(C)OCCO2)OCCO1
inactive: [12] 93 % of control | [13] 101 % of control | [14] 93 % of control

CSC(Cl)=C(Cl)Cl
inactive: endpoint: mean survival time, dose: 25.0 mg/kg/injection, schedule: Q01DX009 (ip), vehicle: saline with Tween-80 97 % of control | endpoint: mean survival time, dose: 50.0 mg/kg/injection, schedule: Q01DX009 (ip), vehicle: saline with Tween-80 95 % of control | [1] 97 % of control

CCC1(C)CCC2C(CCC3C(C)(C(=O)OC)CCCC23C)C12SCCS2 (configuration not stated)
inactive: [9] 86 % of control | [10] 89 % of control | [11] 96 % of control

N#CCCN(N=O)C(=O)Nc1ccccc1
inactive: endpoint: mean survival time, dose: 6.25 mg/kg/injection, schedule: Q01DX Z (ip), vehicle: carboxymethylcellulose (CMC) 110 % of control | endpoint: mean survival time, dose: 12.5 mg/kg/injection, schedule: Q01DX Z (ip), vehicle: carboxymethylcellulose (CMC) 115 % of control | endpoint: mean survival time, dose: 75.0 mg/kg/injection, schedule: Q01DX Z (ip), vehicle: carboxymethylcellulose (CMC) 102 % of control

CNC1(C(=O)c2ccccc2)CC2CCC1C2 (configuration not stated)
inactive: [15] 95 % of control | [16] 96 % of control | [17] 98 % of control

CCCCCCCC(=O)Nc1ccc(-n2c(=O)cc(C)n2C)cc1
inactive: [1] 90 % of control | [6] 90 % of control | [2] 88 % of control | [7] 97 % of control | [3] 86 % of control | [8] 95 % of control

Nc1nc(-c2cccc([N+](=O)[O-])c2)c(N=Nc2ccccc2[N+](=O)[O-])s1
inactive: [9] 96 % of control | [11] 98 % of control

O=C(O)/C=C/C=C/C(=O)O
inactive: [9] 102 % of control and 101 % of control | [10] 104 % of control and 93 % of control | [11] 100 % of control and 101 % of control

O=Cc1cccc(O)c1O
inactive: [6] 96 % of control | [7] 102 % of control | [8] 103 % of control

CN1CCOc2ccccc2OCCOCCOc2ccccc2OCC1
inactive: endpoint: mean survival time, dose: 100.0 mg/kg/injection, schedule: Q01DX009 (ip), vehicle: Klucel (hydroxypropylcellulose) (HPC) 105 % of control | endpoint: mean survival time, dose: 200.0 mg/kg/injection, schedule: Q01DX009 (ip), vehicle: Klucel (hydroxypropylcellulose) (HPC) 106 % of control

O=C(CO)C(OC1OC(CO)C(O)C(O)C1O)C(O)C(O)CO (configuration not stated)
inactive: [15] 103 % of control | [16] 97 % of control | [17] 100 % of control

Nc1ccc(CSc2ccccc2)cc1F
inactive: [6] 93 % of control | [7] 92 % of control | [8] 108 % of control

CCCCCC(CN(C)C)C(=O)/C=C\c1ccc(Cl)cc1Cl (configuration not stated)
inactive: endpoint: mean survival time, dose: 12.5 mg/kg/injection, schedule: Q01DX009 (ip), vehicle: alcohol 102 % of control | endpoint: mean survival time, dose: 25.0 mg/kg/injection, schedule: Q01DX009 (ip), vehicle: alcohol 102 % of control

CCOC(=O)c1c(-c2ccccc2)[nH]c2ccccc2c1=O
inactive: [6] 96 % of control | [7] 98 % of control | [8] 95 % of control

CN(C)Cc1[c-]c(CN(C)C)ccc1.[Br][Pt]
inactive: endpoint: mean survival time, dose: 3.12 mg/kg/injection, schedule: Q04DX003 (ip), vehicle: saline 96 % of control | endpoint: mean survival time, dose: 6.25 mg/kg/injection, schedule: Q04DX003 (ip), vehicle: saline 97 % of control | endpoint: mean survival time, dose: 12.5 mg/kg/injection, schedule: Q04DX003 (ip), vehicle: saline 97 % of control | endpoint: mean survival time, dose: 25.0 mg/kg/injection, schedule: Q04DX003 (ip), vehicle: saline 108 % of control | endpoint: mean survival time, dose: 50.0 mg/kg/injection, schedule: Q04DX003 (ip), vehicle: saline 97 % of control | [4] 105 % of control | [5] 100 % of control

c1ccc(-c2nnc(-c3ccccc3)nn2)cc1
inactive: [1] 98 % of control | [6] 98 % of control | [2] 98 % of control | [7] 101 % of control | [3] 95 % of control | [8] 96 % of control

C[C@@H]1CC[C@]2(C)CC[C@]3(C)C(=CC[C@@H]4[C@@]5(C)CC[C@@H](OC(=O)c6ccc(O)cc6)C(C)(C)[C@@H]5C[C@H](O)[C@]43C)[C@@H]2[C@H]1C(=O)O
inactive: endpoint: median survival time, dose: 0.06 mg/kg/injection, schedule: Q01DX009 (ip), vehicle: saline with Tween-80 103 % of control | endpoint: median survival time, dose: 0.12 mg/kg/injection, schedule: Q01DX009 (ip), vehicle: saline with Tween-80 111 % of control | endpoint: median survival time, dose: 0.25 mg/kg/injection, schedule: Q01DX009 (ip), vehicle: saline with Tween-80 114 % of control | endpoint: median survival time, dose: 0.5 mg/kg/injection, schedule: Q01DX009 (ip), vehicle: saline with Tween-80 123 % of control | endpoint: median survival time, dose: 1.0 mg/kg/injection, schedule: Q01DX009 (ip), vehicle: saline with Tween-80 107 % of control

c1ccc(/C(N=NC(c2ccccc2)(c2ccccc2)c2ccccc2)=C(/N=NC(c2ccccc2)(c2ccccc2)c2ccccc2)c2ccccc2)cc1
inactive: [9] 91 % of control | [10] 101 % of control | [11] 89 % of control

CC1C(=O)OC2C1CCC1(C)C=CC(=O)C3(C)OC213 (configuration not stated)
inactive: [12] 108 % of control and 104 % of control | [13] 108 % of control and 124 % of control | [14] 120 % of control
